Assay [1] addresses ALK tyrosine kinase receptor (Homo sapiens, UniProt Q9UM73).
In assay [2] the target is ALK tyrosine kinase receptor (Homo sapiens, UniProt Q9UM73, L1196M).
The next assay has as its system BaF3. Briefly: cells. The following applies: Mus musculus.

Drawing on ChEMBL document CHEMBL3112523, “Synthesis and biological evaluation of benzo[4,5]imidazo[1,2-c]pyrimidine and benzo[4,5]imidazo[1,2-a]pyrazine derivatives as anaplastic lymphoma kinase inhibitors” (Bioorg Med Chem, 2014), this text covers IC50 for 14 compounds.

The term IC50 denotes the point on the concentration scale where inhibition reaches its midpoint.

Description for BaF3: Cytotoxicity against mouse BAF3 cells assessed as growth inhibition after 72 hrs by [3H]-thymidine incorporation assay

For `Clc1cc2nc3ccccc3n2cn1`, the IC50 in assay [1] was more than 100 µM.
As to `c1ccc(Nc2cc3nc4ccccc4n3cn2)cc1`, the IC50 in assay [2] is 10 µM; in assay [1], 52 µM.
For `O=[N+]([O-])c1cccc(Nc2cc3nc4ccccc4n3cn2)c1`, the IC50 in assay [2] is 14 µM; in assay [1] it was 10 µM.
Take `COc1cccc(Nc2cc3nc4ccccc4n3cn2)c1`: the IC50 in assay [1] was 51 µM.
With `Clc1cc2nc3ccc(Br)cc3n2cn1`, the IC50 in assay [1] is more than 50 µM.
As to `Brc1ccc2nc3cc(Nc4ccccc4)ncn3c2c1`, the IC50 turned out to be 49 µM in assay [2], 69 µM in assay [1] and 5.2 µM with BaF3.
On to `COc1ccc(-c2cc3nc4ccc(Br)cc4n3cn2)cc1`, for which the IC50 is 10 µM in assay [1] and more than 25 µM in the assay on BaF3.
For `Clc1cncc2nc3ccccc3n12`, in assay [1], the IC50 was more than 100 µM.
Take `Clc1cncc2nc3ccc(Br)cc3n12`: the half-maximal inhibitory concentration (IC50) was more than 50 µM in assay [1] and 2.4 µM in the assay on BaF3.
`CN1CCN(c2ccc(-c3ccc4nc5cncc(-c6ccc(N7CCN(C)CC7)cc6)n5c4c3)cc2)CC1`: the IC50 was 29 µM in assay [2], more than 100 µM in assay [1] and 0.87 µM in the assay on BaF3.
`COc1ccc(-c2cncc3nc4ccc(-c5ccc(NC(C)=O)cc5)cc4n23)cc1` came in with an IC50 in assay [1] of 18 µM.
The same measure, in the same setting: next, `COc1ccc(-c2cncc3nc4ccc(-c5ccc(N6CCN(C)CC6)cc5)cc4n23)cc1`: 14 µM.
Turning to `COc1ccc(-c2cncc3nc4ccc(/C=C/c5ccccc5)cc4n23)cc1`, the results for the IC50 in assay [2] and in assay [1] were 4.5 µM and 3.5 µM, respectively.
For the compound `COc1ccc(-c2ccc3nc4cncc(/C=C/c5ccccc5)n4c3c2)cc1`, the IC50 is 1.5 µM in assay [2], 0.65 µM in assay [1] and more than 12.5 µM in the assay with BaF3.
